Test results reported in patent publication US20170014386A1, “Treatment of Multidrug-Resistant Nephrotic Syndrome (MDR-NS) in Children” (AbbVie, Inc., priority 2015, published 2017).
“Also recorded” adds a separate entry of the source.

Key:
[1] = test system: podocin; assay: podocin expression analysis (Western blot, qRT-PCR, immunofluorescence) in the mouse model; type: in vivo; conditions: treated animals, Example 2
Method: Further podocin expression analysis was carried out.

[2] = test system: Nphs2^R140Q/− mice; assay: kidney histopathology (tubulointerstitial fibrosis, glomerular sclerosis index, podocytes per glomerulus) in the mouse model; type: in vivo
Method: We have analyzed results from studies in a transgenic mouse model where the mice were treated with atrasentan. Using the Cre recombinase technology, we generated a novel inducible mouse model of podocin-related nephrotic syndrome. Cross-breeding of animals carrying one foxed podocin construct, one podocin allele with the R140Q mutation, and tamoxifen-sensitive inducible Cre enabled us to induce hemizygosity for the R140Q mutant. In this work, we were able to examine the human missense mutation […] of NPHS2 gene identified in pediatric patients with nephrotic syndrome in vivo in an inducible mouse model of R140Q mutation (murine analogue to the human mutation). […] Furthermore, from the end of the week four of observation the values of plasma urea and creatinine started to increase slightly and the creatinine clearance appeared to reduce, pointing to the beginning of renal failure. Proteinuria (FIG. 1A, FIG. 1B, and FIG. 1D), weight gain and blood pressure (FIG. 1C) were monitored once weekly. All animals were sacrificed at the end of the observation period at week 5 (or week 9 with delayed treatment) and the biochemical parameters (FIG. 3A-E) were determined. All results were compared to two control groups of healthy and sick untreated animals. […] Quantification was done with Image ProPremier (glomerular sclerosis index-GSI, 50 glomeruli/animal). […] FIG. 5C tabulates podocyte numbers per glomerulusWT1-via immunostaining of glomerular cross-sections (4 μm and 10 μm). Quantification was done with ImageJ according to Animal Models of Diabetic Complications Consortium protocol. 50 glomeruli/animal. We found no effect on the number of podocytes per glomerulus in treated animals. Proteinuria (FIG. 6), weight gain and blood pressure (FIG. 7) were monitored at least every 2 weeks. All animals were sacrificed at the end of the observation period and biochemical parameters (FIG. 8) as well as histological changes (FIG. 9) were determined consequently. All results were compared to control groups of healthy and sick untreated animals. […] FIG. 9A are exemplary images of healthy, untreated and Atrasentan treated kidney samples.

[3] = test system: Nphs2^R140Q/− mice; assay: mean arterial blood pressure in inducible mouse model of podocin-related nephrotic syndrome; type: in vivo
Method: (§1) We have analyzed results from studies in a transgenic mouse model where the mice were treated with atrasentan. Using the Cre recombinase technology, we generated a novel inducible mouse model of podocin-related nephrotic syndrome. Cross-breeding of animals carrying one foxed podocin construct, one podocin allele with the R140Q mutation, and tamoxifen-sensitive inducible Cre enabled us to induce hemizygosity for the R140Q mutant. In this work, we were able to examine the human missense mutation […] of NPHS2 gene identified in pediatric patients with nephrotic syndrome in vivo in an inducible mouse model of R140Q mutation (murine analogue to the human mutation). […] Furthermore, from the end of the week four of observation the values of plasma urea and creatinine started to increase slightly and the creatinine clearance appeared to reduce, pointing to the beginning of renal failure. Seven animals were treated with 5 mg/kg/d atrasentan and another three animals were treated with the lower dose of 2.5 mg/kg/d atrasentan via food intake for four weeks. Furthermore, we started a new group of 8 animals with a higher dose treatment of 15 mg/kg/d atrasentan. […] Proteinuria (FIG. 1A, FIG. 1B, and FIG. 1D), weight gain and blood pressure (FIG. 1C) were monitored once weekly. All animals were sacrificed at the end of the observation period at week 5 (or week 9 with delayed treatment) and the biochemical parameters (FIG. 3A-E) were determined. All results were compared to two control groups of healthy and sick untreated animals. […] Therefore, we started the treatment after 4 weeks of disease state (5 mg/kg/d) when animals are showing high proteinuria, performing 4-weeks treatment duration (n=14) and 8 weeks treatment duration (n=4), respectively. Proteinuria (FIG. 6), weight gain and blood pressure (FIG. 7) were monitored at least every 2 weeks. All animals were sacrificed at the end of the observation period and biochemical parameters (FIG. 8) as well as histological changes (FIG. 9) were determined consequently. All results were compared to control groups of healthy and sick untreated animals.

[4] = biological target: T1, ETA receptor (Homo sapiens, UniProt P25101); conditions: cited from earlier work
T1 sequence (P25101 21-427): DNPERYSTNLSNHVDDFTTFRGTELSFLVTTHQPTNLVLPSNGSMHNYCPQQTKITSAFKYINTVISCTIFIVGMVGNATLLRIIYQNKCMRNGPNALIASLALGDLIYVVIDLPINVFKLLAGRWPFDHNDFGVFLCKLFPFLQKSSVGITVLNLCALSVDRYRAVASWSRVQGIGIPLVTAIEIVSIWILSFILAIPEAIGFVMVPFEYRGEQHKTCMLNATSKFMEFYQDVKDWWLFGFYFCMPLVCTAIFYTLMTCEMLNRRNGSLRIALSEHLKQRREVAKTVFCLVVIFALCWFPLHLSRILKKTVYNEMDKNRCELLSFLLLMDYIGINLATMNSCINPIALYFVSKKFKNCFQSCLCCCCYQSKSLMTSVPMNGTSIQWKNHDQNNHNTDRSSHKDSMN

[5] = test system: Endothelin-1, ETAR and ETBR; assay: expression of Endothelin-1, ETAR and ETBR (real-time PCR, Western blot) in kidney of the mouse model; type: in vivo; conditions: Atrasentan treated animals, Example 2
Method: Western blot analysis was performed to confirm the observation of increased mRNA level in the late course of disease (FIG. 11).

[6] = test system: Nphs2^R140Q/− mice; assay: proteinuria in inducible mouse model of podocin-related nephrotic syndrome; type: in vivo
Method: as §1, with “All results were compared to control groups of healthy and sick untreated animals.” left out

[7] = delayed treatment, 4 weeks of treatment, compared to sick untreated animals of the same age, Example 2

CCCCN(CCCC)C(=O)CN1C[C@H](c2ccc3c(c2)OCO3)[C@@H](C(=O)O)[C@@H]1c1ccc(OC)cc1 [atrasentan, (2R,3R,4S)-4-(1,3-Benzodioxol-5-yl)-1-[2-(dibutylamino)-2-oxoethyl]-2-(4-methoxyphenyl)pyrrolidine-3-carboxylic acid]
Podocin protein abundance ([1]; Western blot): partly preserved
Podocin mRNA expression ([1]; qRT-PCR): partly preserved
tubulointerstitial fibrosis ([2]; 2.5 mg/kg/d, p<0.05 compared to untreated group, Example 1): reduced area affected by fibrosis
tubulointerstitial fibrosis ([2]; 5 mg/kg/d, p<0.05 compared to untreated group, Example 1): reduced area affected by fibrosis
tubulointerstitial fibrosis ([2]; 15 mg/kg/d, Example 1): increase of tubulointerstial fibrosis
glomerular sclerosis index (GSI) ([2]; all treatment groups, PAS staining, 50 glomeruli/animal, Example 1): No improvement
podocytes per glom ([2]; delayed treatment (D), n.s. vs. untreated wk 8 32%): 54 % of healthy controls
GSI ([2]; delayed treatment (D), n=9, p=0.0008 v untreated wk 8 2.27): 1.69
glomerulosclerosis [2, 7]: mitigated
tubulointerstitial fibrosis [2, 7]: mitigated
podocyte population ([2]; delayed treatment, 4 weeks of treatment, Example 2): No notable effects
number of podocytes per glomerulus ([2]; treated animals, WT1 immunostaining, Example 1): no effect
blood pressure ([3]; delayed treatment 5 mg/kg/d, compared to untreated animals, Example 1): lowered blood pressure
MAP ([3]; delayed treatment (D), wk7, p=0.001 v untreated 99.5): 80.4 mmHg
blood pressure ([3]; four-week delay, 5 mg/kg/d, compared to untreated animals at week 5 and 7 (p=0.001, p=0.047), Example 2): significant decrease of blood pressure
blood pressure ([3]; prophylactic 2.5 mg/kg/d, compared to untreated and healthy animals, Example 1): higher blood pressure
blood pressure ([3]; prophylactic 5 mg/kg/d, compared to untreated and healthy animals, Example 1): higher blood pressure
blood pressure ([3]; prophylactic 15 mg/kg/d, compared to untreated animals, Example 1): lower blood pressure
relative selectivity for ETA receptor over ETB receptor [4]: greater than 1,800 fold
ETAR mRNA expression [5]: lower expression
ETBR mRNA expression [5]: lower expression
endothelin-1 mRNA expression [5]: lower expression
protein expression of endothelin-1 ([5]; Western blot): decreased protein expression
proteinuria ([6]; delayed treatment 5 mg/kg/d after 4 weeks of disease state, Example 2): reaches a peak and declines afterwards progressively; also recorded: decreased progressively
proteinuria ([6]; delayed treatment 5 mg/kg/d started four weeks after induction, n=9, Example 1): effective attenuation of proteinuria; also recorded: antiproteinuric effect
proteinuria ([6]; immediate or prophylactic treatment, 2.5, 5 or 15 mg/kg/d via food, first 4 weeks after induction, Example 1): no beneficial effect in attenuating proteinuria; also recorded: no antiproteinuric effect
